Reference: patent US20250002491A1, “N,N-DIMETHYL-4-(7-(N-(1-METHYLCYCLOPROPYL)SULFAMOYL)-IMIDAZO[1,5-A]PYRIDIN-5-YL)PIPERAZINE-1-CARBOXAMIDE DERIVATIVES AND THE CORRESPONDING PYRAZOLO[1,5-A]PYRIDINE DERIVATIVES AS PARG INHIBITORS FOR THE TREATMENT OF CANCER” (FORX THERAPEUTICS AG, priority 2021, published 2025)
Read-outs that look alike come from different tables or passages of the source.

How the values were obtained:
U2OS cells = experiment: Cellular viability assay (Cell Titer-Glo), U2OS; format: cell-based; conditions: Homo sapiens; U2OS (PARG-inhibition insensitive), 96 hours of incubation; read-out: EC50 in μM determined in U2OS cells as described under Cellular viability assay
Protocol: (§1) NCIH-460 as a PARG-inhibition sensitive cell line and U2OS as PARG-inhibition insensitive cell line were plated at 1000 cells/well and 2000 cells/well, respectively, in 96-well white plates with clear flat bottom. After 24 hours, the compounds were added with the Tecan digital dispenser (D300e), in duplicates. The outer wells of the plate were excluded. After 96 hours of incubation, 150 μl of the growth medium were removed and 50 μl of Cell Titer-Glo (Promega) were added per well. Following an incubation of 10 minutes, luminescence was read using a plate reader (Tecan). Averaged values of the samples were normalized to DMSO treated control samples. Curves were fit as % of the control vs. log of the compound concentration using a 4 parameter log-logistic function: […]

PARG in U2OS cells = experiment: Cellular PAR chain assay (flow cytometry, PAR chain positive cells); format: cell-based; conditions: 1 hour compound pretreatment
Protocol: The ability of compounds to inhibit PARG in response to DNA damage, was assessed with U2OS cells pretreated with the compounds for 1 hour, following a 1-hour treatment with or without the DNA alkylating agent temozolomide (TMZ). […] The cells were incubated for 2 hours at room temperature with a mouse monoclonal antibody against poly (ADP) ribose (PAR) polymer. The cells were washed and incubated with an anti-mouse Alexa-488 conjugated secondary antibody for 1 hour at room temperature. Propidium iodide staining was used to determine DNA content in the cells (staining at 4° C. overnight). The fluorescence intensity of the cells was assessed by flow cytometry (Cytoflex from Beckmann) and the percentage of PAR chain positive cells (gated in relation to TMZ+DMSO treated control) was determined. PAR chain positive cells % were fit against the concentration of the compound using a 4 parameter log-logistic function, generating PAR chain EC50 values: […]

hPARG = target: T1, hPARG (Homo sapiens, UniProt Q86W56, A967T/C963S/D927K/H446G/I916T/L447S/L473S/M841I/N479S/R811K/S802A/S858P/T924D); experiment: PARG enzymatic IC50 assay (absorbance, ADP-ribose-pNP substrate); format: biochemical; conditions: 2 hours incubation of enzyme with compound; 30 nM hPARG, 800 μM ADP-pNP; read-out: IC50 in μM determined in PARG enzymatic assay (PARG protein and 2 hours incubation)
T1 construct: human PARG (448-976 [H446G, L447S, L473S, N479S); 6His-TwinStrep (protease-cleavable) (N, cleaved yes); host or cells: E. coli BL21 (DE3)
T1 sequence (Q86W56 446-976 H446G/L447S/L473S/N479S/S802A/R811K/M841I/S858P/I916T/T924D/D927K/C963S/A967T): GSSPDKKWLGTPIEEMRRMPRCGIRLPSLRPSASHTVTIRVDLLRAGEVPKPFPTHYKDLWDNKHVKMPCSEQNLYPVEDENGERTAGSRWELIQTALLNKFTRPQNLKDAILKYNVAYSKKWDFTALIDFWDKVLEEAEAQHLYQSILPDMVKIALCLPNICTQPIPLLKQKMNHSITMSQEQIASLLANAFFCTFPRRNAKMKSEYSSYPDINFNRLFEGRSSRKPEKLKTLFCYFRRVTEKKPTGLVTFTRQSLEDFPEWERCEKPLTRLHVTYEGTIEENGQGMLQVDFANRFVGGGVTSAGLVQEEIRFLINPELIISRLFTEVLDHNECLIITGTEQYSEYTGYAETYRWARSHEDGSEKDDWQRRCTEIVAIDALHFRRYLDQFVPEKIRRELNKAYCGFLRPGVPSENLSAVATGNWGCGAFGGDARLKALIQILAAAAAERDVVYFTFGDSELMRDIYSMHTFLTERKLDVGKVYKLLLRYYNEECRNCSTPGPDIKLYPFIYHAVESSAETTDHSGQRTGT
Protocol: A codon optimized gene encoding human PARG (448-976 [H446G, L447S, L473S, N479S, S802A, R811K, M841I, S858P, 1916T, T924D, D927K, C963S, A967T]) was synthesized by Genscript, and cloned into pET15b (Ncol/BamHI) with an N-terminal, Thrombin protease cleavable 6His-TwinStrep tag. Expression of the protein in E. coli BL21 (DE3) was induced by addition of 0.2 mM IPTG to a shake flask culture grown to OD600=0.8 at 37° C. Growth was allowed to continue at 30° C. for a further 20 hours before harvesting by centrifugation and storage of the cell pellet at −80° C.
Protein was purified by IMAC and SEC: frozen cell pellets (typically 40 g wet weight) were resuspended by homogenization in 5 volumes buffer A (25 mM Tris/HCl pH 8.0, 200 mM NaCl, 2 mM DTT), supplemented with 1 mg of DNase I from bovine pancreas (Sigma-Aldrich) and protease inhibitors (Roche Complete™ EDTA-free protease inhibitor tablet), and lysed by passage through a Constant Systems BasicZ homogenizer. The lysate was clarified by centrifugation for 60 minutes at 25,000 g, 4° C., and the lysate supernatant was loaded onto 5 ml StrepTrap HP (Cytiva) pre-equilibrated with buffer A. The column was washed with buffer A (˜10 CV), then buffer B containing 1M KCl (˜5 CV), and then the protein was eluted with buffer A containing 2.5 mM d-Desthiobiotin. Pooled fractions containing 6HisTwinStrep-TEV-hPARG were incubated with TEV protease overnight at 4° C. hPARG was separated from uncleaved material and Thrombin protease through gel filtration with Superdex75 sizing column (GE Healthcare) pre-equilibrated with SEC buffer (15 mM Tris/HCl pH 8.5, 100 mM NaCl, 2 mM DTT). Pooled fractions containing pure hPARG were concentrated using a 10 k MWCO spin concentrator (VivaSpin) to 10 mg/mL, and then either used immediately for crystallisation or snap-frozen in liquid nitrogen for storage at −80° C.
PARG Enzymatic IC50 Assay
PARG enzyme as incubated with compound or vehicle (DMSO) for 15 minutes or 2 hours in a 384 well plate. After adding the PARG substrate ADP-ribose-pNP, the plate was read for absorbance intensity at 405 nm. The vehicle (DMSO) with high absorbance intensity represents no inhibition of enzymatic reaction while the low control (no enzyme) with low absorbance intensity represents full inhibition of enzymatic reaction.
• hPARG: Peak Protein, 30 nM • Substrate: ADP-pNP, 800 μM, Jena Bioscience catalog #NU-955 • Reaction time: 60 minutes • Assay buffer: 50 mM Tris-HCl pH 8.0, 100 mM NaCl, 2 mM DTT • Temperature: 30° C. • Total volume: 30 μL
• 0% inhibition control: DMSO • 100% inhibition control: No enzyme
The protocol that was used for enzyme reaction and detection is as follows: • 1. Transfer 100 nL of the final concentration of test compounds or vehicle (DMSO) to the appropriate wells of a microtiter plate. • 2. Centrifuge the plate at 1000 rpm for 1 minute. • 3. Transfer 14.6 μL of 2× final concentration of enzyme in assay buffer or assay buffer alone to the appropriate wells. • 4. Centrifuge the plate at 1000 rpm for 1 minute. • 5. Incubate the plate at room temperature for 15 minutes or 2 hours. • 6. Transfer 15.4 μL of 2× substrate in assay buffer to all the test wells. • 7. Centrifuge the plate at 1000 rpm for 1 minute. • 8. Read the plate on a plate reader (e.g., Spark Tecan).

NCIH-460 cells = experiment: Cellular viability assay (Cell Titer-Glo), NCIH-460; format: cell-based; conditions: Homo sapiens, NCI-H460; NCIH-460 (PARG-inhibition sensitive), 96 hours of incubation; read-out: EC50 in μM determined in NCIH-460 cells as described under Cellular viability assay
Protocol: as §1

[1] = without TMZ, read-out: EC50 in μM determined in cellular assay as described under Cellular PAR chain assay (conditions without treatment of TMZ)
[2] = Homo sapiens, then 1-hour treatment with TMZ, read-out: EC50 in μM determined in cellular assay as described under Cellular PAR chain assay (conditions with treatment of TMZ)

Row | EC50 (U2OS cells) [µM] | EC50 (PARG in U2OS cells; [1]) [µM] | EC50 (PARG in U2OS cells; [2]) [µM] | IC50 (hPARG) [µM] | Structure (SMILES) | EC50 (NCIH-460 cells) [µM]
1 | > 16.8 | > 10 | 1.1 | 0.064 | Cc1ccc(-c2ncn3c(N4CCN(C(=O)N(C)C)CC4)cc(S(=O)(=O)NC4(C)CC4)cc23)cn1 [Example 1, N,N-dimethyl-4-(7-(N-(1-methylcyclopropyl)sulfamoyl)-1-(6-methylpyridin-3-yl)imidazo[1,5-a]pyridin-5-yl)piperazine-1-carboxamide] | 13.4
2 | > 20 | > 10 | 0.218 | 0.066 | CN(C)C(=O)N1CCN(c2cc(S(=O)(=O)NC3(C)CC3)cc3c(-c4ccc(C(F)F)nc4)ncn23)CC1 [Example 3, 4-(1-(6-(difluoromethyl)pyridin-3-yl)-7-(N-(1-methylcyclopropyl)sulfamoyl)imidazo[1,5-a]pyridin-5-yl)-N,N-dimethylpiperazine-1-carboxamide] | 4.47
3 | > 20 | > 10 | 0.223 | 0.054 | Cc1ccc(-c2cnn3c(N4CCN(C(=O)N(C)C)CC4)cc(S(=O)(=O)NC4(C)CC4)cc23)cn1 [Example 5, N,N-dimethyl-4-(5-(N-(1-methylcyclopropyl)sulfamoyl)-3-(6-methylpyridin-3-yl)pyrazolo[1,5-a]pyridin-7-yl)piperazine-1-carboxamide] | 3.22
4 | > 20 | > 10 | 0.328 | 0.028 | CN(C)C(=O)N1CCN(c2cc(S(=O)(=O)NC3(C)CC3)cc3c(-c4ccc(C(F)F)nc4)cnn23)CC1 [Example 7, 4-(3-(6-(difluoromethyl)pyridin-3-yl)-5-(N-(1-methylcyclopropyl)sulfamoyl)pyrazolo[1,5-a]pyridin-7-yl)-N,N-dimethylpiperazine-1-carboxamide] | 3.94
5 | > 20 | – | – | 0.043 | COC(=O)c1cnn2c(N3CCN(C(=O)N(C)C)CC3)cc(S(=O)(=O)NC3(C)CC3)cc12 [Example 8, Methyl 7-(4-(dimethylcarbamoyl)piperazin-1-yl)-5-(N-(1-methylcyclopropyl)sulfamoyl)pyrazolo[1,5-a]pyridine-3-carboxylate] | 7.22
6 | > 20 | > 10 | 0.266 | 0.042 | CN(C)C(=O)N1CCN(c2cc(S(=O)(=O)NC3(C)CC3)cc3c(-c4nnc(C(F)F)s4)cnn23)CC1 [Example 10, 4-(3-(5-(difluoromethyl)-1,3,4-thiadiazol-2-yl)-5-(N-(1-methylcyclopropyl)sulfamoyl)pyrazolo[1,5-a]pyridin-7-yl)-N,N-dimethylpiperazine-1-carboxamide] | 1.3
7 | > 20 | > 10 | 0.739 | 0.098 | CN(C)C(=O)N1CCN(c2cc(S(=O)(=O)NC3(C)CC3)cc3c(-c4nnc(C(F)F)o4)cnn23)CC1 [Example 11, 4-(3-(5-(difluoromethyl)-1,3,4-oxadiazol-2-yl)-5-(N-(1-methylcyclopropyl)sulfamoyl)pyrazolo[1,5-a]pyridin-7-yl)-N,N-dimethylpiperazine-1-carboxamide] | 4.58
8 | > 20 | > 10 | 1.49 | 0.038 | Cc1nnc(-c2cnn3c(N4CCN(C(=O)N(C)C)CC4)cc(S(=O)(=O)NC4(C)CC4)cc23)s1 [Example 12, N,N-dimethyl-4-(3-(5-methyl-1,3,4-thiadiazol-2-yl)-5-(N-(1-methylcyclopropyl)sulfamoyl)pyrazolo[1,5-a]pyridin-7-yl)piperazine-1-carboxamide] | 6.05
